# Assay: gradient 5% acetonitrile 3 min, to 50% in 2 min, to 85% in 15 min, held 3 min, 100 µL/min
# Settings: column: Zorbax Extend-C18 2.1 x 50 mm; eluents: water / acetonitrile, 0.1% formic acid
# Method in brief: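 Over 3 months, pure standards in mixtures of ~100 molecules were run by HPLC coupled to a quadrupole time-of-flight mass spectrometer in positive and negative ionization mode. The column was a Zorbax Extend-C18 (2.1 × 50 mm, 1.8 μm) at 100 μL/min, eluted with water and acetonitrile each holding 0.1% formic acid, with 40 μL dead and 900 μL dwell volumes. Retention time was determined from adduct peaks chosen by software and checked manually.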
row,SMILES,RP-LC retention time [s]
1,CCCS(=O)(=O)c1nc2ccc(NS(=O)(=O)c3ccc(F)c(Cl)c3)cc2s1,1020
2,CCOC(=O)c1ccc(N2C=C(C(=O)N3CCCC3)S(=O)(=O)c3ccc(F)cc32)cc1,845
3,COCc1noc([C@@H]2CN(C(=O)C3(c4ccccc4)CC3)C[C@H]2CO)n1,676
4,Cc1nc(NCCC2=CCCCC2)nc(N2CCOCC2)c1[N+](=O)[O-],965
5,COC(=O)c1ccc2c(=O)n(-c3ccc(Cl)cc3)c(N3CCOCC3)nc2c1,975
6,CCN1C(=O)c2ccccc2Oc2ccc(C(=O)NCc3ccc4c(c3)OCO4)cc21,1170
7,CCOC(=O)CC1(NC(=O)NCC(=O)N2CCc3ccccc32)CCCCC1,885
8,Cc1ccc(S(=O)(=O)N2CCC(c3nc(C(=O)N4CCCC4)c(C)o3)CC2)cc1,733
9,Cc1ccc(CNC(=O)c2c(-c3cccc(Br)c3)noc2C)o1,987
10,COc1cccc(C(=O)CSc2ccc(-n3nc(C)cc3C)nn2)c1,931
11,COc1cc([C@@H]2c3cc4c(cc3[C@H](O)[C@@H](CO)[C@@H]2C(=O)NCC(C)C)OCO4)cc(OC)c1OC,668
12,Cc1cc(F)ccc1NS(=O)(=O)c1cc(-c2[nH]ncc2C(=O)N2CCCCC2)oc1C,770
13,O=C(C(=O)N1CCN(c2ccc(F)cc2)CC1)c1ccc[nH]1,753
14,CCN(CC)CCCNC(=O)c1nnc(-c2ccc(S(=O)(=O)N3CCC(C)CC3)cc2)o1,696
15,COc1cc2c3c(n(C)c(=O)c2cc1OC)-c1cc2c(cc1C3=O)OCO2,840
16,COCCCNC(=O)c1nc(Nc2ccc(F)cc2)c2ccccc2n1,696
17,CC(C)CNC(=O)C1CCN(c2cnn(Cc3ccccc3)c(=O)c2)CC1,745
18,Cc1cccc(NC(=O)C(=O)NCCc2cccs2)n1,788
19,CC(C)n1nnc2cc(C(=O)O)ccc21,687
20,CCOc1ccc(C(C)C)cc1S(=O)(=O)Nc1cccnc1,722
21,CCn1cnc2ccc(-c3noc(Cc4ccccc4Cl)n3)cc21,774
22,O=C(Nc1ccc2c(c1)OCCO2)N1CCc2nn(CC3CC3)c(=O)n2CC1,703

row,SMILES,RP-LC retention time [s]
1,CC1=C(c2ccc(C)cc2)S(=O)(=O)N=C1N1CCCN(C(=O)NCCC(C)C)CC1,895
2,Cn1cc(CC(=O)NCc2cc(F)ccc2F)c2cccnc21,683
3,CCOC(=O)c1c(S(=O)(=O)N2CCC(C(=O)Nc3cccc(C)c3)CC2)c(C)n(C)c1C,875
4,NC(=O)[C@@H]1CCCN1C(=O)[C@H](Cc1ccccc1)NC(=O)[C@@H]1CCCN1C(=O)[C@@H](N)Cc1ccc(O)cc1,584
5,O=C1C2N=NN(Cc3nc(-c4ccc(Cl)cc4)no3)C2C(=O)N1c1ccc2c(c1)CCC2 (configuration not stated),1160
6,Cc1ccccc1CC(=O)N1CCC(c2nc(C(=O)N3CCOCC3)c(C)o2)CC1,616
7,CCCCN(C)C(=O)c1ccc2c(c1)Sc1ncccc1C(=O)N2C(C)C,804
8,COc1ccc(N2CCN(C(=O)Cn3ncc4c(c3=O)N(C)C(=O)CS4)CC2)cc1,635
9,Cc1cc(-c2ccc(NC(=O)c3cccs3)c(C)c2)ccc1NC(=O)c1ccsc1,878
10,Cc1ccc(CNC(=O)Cn2c(C)cc(-c3nnc(-c4ccccc4)o3)c2C)cc1,949
11,CC(C)NC(=O)CN1CCN(C(=O)c2sc3ncccc3c2-n2cccc2)CC1,607
12,CCCCNC(=O)C(=O)NCc1n[nH]c(=O)c2ccccc12,659
13,O=C(c1ccc2cc[nH]c2c1)N1CCC(c2nc(-c3ccccc3)no2)C1 (configuration not stated),866
14,O=C(CCc1c(-c2ccc(Br)cc2)nc2ccccn12)NC1CCCCC1,702
15,O=C(NCC(F)(F)F)C1CCN(Cc2noc(-c3ccc(F)cc3)n2)CC1,642
16,COc1ccc(NC(=O)Cn2cccc2-c2nnc(-c3ccccc3)o2)cc1Cl,997
17,COc1ccc(-n2nc(C)c3sc(N4CCCC(C(=O)NC5CCCCC5)C4)nc32)cc1 (configuration not stated),1110
18,CCOC(=O)c1[nH]c(C)c(C(=O)CN(CC2CCCO2)C(=O)c2ccc(F)cc2)c1C (configuration not stated),800
19,O=C(Cn1cnc2nc3c(cc2c1=O)CCCC3)Nc1cc(F)ccc1F,738
20,CC1COC2(CCN(c3nc(=O)c4cc(C(F)(F)F)cc([N+](=O)[O-])c4s3)CC2)O1 (configuration not stated),1000
21,C[C@H]1CCC/C=C/C2C[C@H](O)C[C@H]2[C@H](O)/C=C/C(=O)O1 (some centres not stated),732
22,Cc1ccccc1-c1noc(Cn2c(=O)n(Cc3cccc(Cl)c3)c(=O)c3sccc32)n1,819

row,SMILES,RP-LC retention time [s]
1,O=C1CC(c2noc(-c3cc(F)cc(F)c3)n2)CN1c1ccc(F)c(Cl)c1 (configuration not stated),1110
2,O=c1ccc(-c2ccccc2)nn1CCc1nc(-c2ccc(Cl)cc2)no1,1040
3,CCn1c(=O)c(C(=O)NCc2ccccc2F)nc2cccnc21,824
4,Cc1cc(C)c(CN2CCC(N3CCN(Cc4nc(C)no4)C3=O)C2)c(C)c1 (configuration not stated),672
5,Cc1ccc(C2Cn3nnc(-c4nc(-c5ccc(F)cc5)no4)c3CO2)c(C)c1 (configuration not stated),1300
6,CCn1cc(-c2nc(C(=O)NCc3ccccc3F)cs2)c2cccnc21,987
7,CCOc1ccccc1NC(=O)N1CCCC1c1nc(-c2cccc(OC)c2)no1 (configuration not stated),1100
8,O=C(CN1CCN(Cc2ccccc2)C1=O)NCc1ccccc1Br,824
9,COC(=O)c1c(NCc2ccc(OC)c(OC)c2)c2cccc(Cl)c2[nH]c1=O,736
10,COc1ccc(-c2noc(-c3nn(-c4cccc(F)c4)ccc3=O)n2)cc1OC,804
11,Cn1nc(-c2nnc(-c3ccc(F)cc3)o2)c2c1CCN(S(=O)(=O)Cc1ccccc1Cl)C2,970
12,O=C(Nc1ccc(F)c(Cl)c1)N1CCc2nc[nH]c2C1,614
13,O=C(c1csc(N2CCN(c3cccc(Cl)c3)CC2)n1)N1CCOCC1,970
14,Cc1cc(NC(=O)N2CCC(n3cnnc3C3CC3)C2)ccc1Br (configuration not stated),692
15,CCCCCn1c(=O)c2ccccc2n(Cc2nc(-c3ccccc3OCC)no2)c1=O,1250
16,CCn1cnc2ccc(-c3noc(-c4ccc(C)cc4)n3)cc21,832
17,CC1CCCCN1CCCN1C(=O)c2ccccc2C1C(=O)NC1CCCCC1 (configuration not stated),642
18,Cc1ccc(-c2ccc(-n3nc(C)c(S(=O)(=O)NCc4ccccc4)c3C)nn2)cc1,1090
19,COc1ccc(-n2c(=O)c(C(=O)Nc3ccc(F)cc3Cl)c(O)c3cccnc32)cc1,1320
20,COc1ccc(OC)c(S(=O)(=O)N2CCC([C@H]3[C@@H](OC)C(=O)N3C(C)C)CC2)c1,809
21,Cc1csc(NC(=O)C2CCN(S(=O)(=O)c3cc(C(=O)N4CCCC4)n(C)c3)CC2)n1,697
22,COc1ccc(CNS(=O)(=O)c2ccccc2-c2nc(-c3ccc(F)cc3)no2)cc1,1160

row,SMILES,RP-LC retention time [s]
1,Cc1ccc(C2NC(=O)N(CC(=O)Nc3cc(F)cc(F)c3)C3=C2C(=O)OC3)cc1 (configuration not stated),844
2,Cc1cccc(-c2ncccc2CNS(=O)(=O)c2ccc(C#N)cc2)c1,697
3,COc1ccc(OC)c(-c2cn3ccn(-c4ccc(C)c(Cl)c4)c(=O)c3n2)c1,982
4,CC(C)(C)NC(=O)N1CCC(CNC(=O)C2CCN(S(C)(=O)=O)CC2)CC1,599
5,CC(C)(C)NC(=O)Cc1cccn1-c1cccc(Cl)c1,1010
6,CC1CCCCN1CCNC(=O)c1cc2c(s1)N(C)CCCC2 (configuration not stated),672
7,Cc1ccc(CNC(=O)C2(C)CCCN(C(=O)NC(C)C)C2)cc1 (configuration not stated),766
8,Cc1nc(-c2ccc(-c3noc(C(C)NC(=O)c4ccco4)n3)cc2)cs1 (configuration not stated),863
9,Cc1cc(N2CCN(c3ccccn3)CC2)n2nc(-c3ccc(Cl)cc3)c(C)c2n1,649
10,CCCNC(=O)C1CCN(c2ccc(SCC(=O)Nc3ccc(OC)c(OC)c3)nn2)CC1,595
11,CCOC(=O)c1ccc(NC(=O)Cn2c(=O)nc(N3CCCC(C)C3)c3ccccc32)cc1 (configuration not stated),872
12,O=C(NCc1ccc(F)cc1F)C1CCCN(c2ncnc3nn(-c4ccc(F)cc4)cc23)C1 (configuration not stated),700
13,Cc1ccc(NS(=O)(=O)c2cc(-c3nc(C(C)(C)C)cs3)cs2)c(F)c1,1260
14,O=C(NCc1ccc(F)cc1)C1CCCN(c2nccnc2Sc2ccccc2)C1 (configuration not stated),1020
15,Cc1cc(C)cc(NC(=O)C2CC(=O)N(c3ccc4oc(C)nc4c3)C2)c1 (configuration not stated),801
16,O=C(Cn1c(Cc2ccccc2)nc2ccccc21)N1CCOCC1,593
17,CC1CS(=O)(=O)N(c2cccc(C(=O)N3CCCc4ccccc43)c2)C1=O (configuration not stated),781
18,Cc1ccc(S(=O)(=O)N(C)CC2(C)CCOCC2)cc1F,957
19,CCN(CC)C(=O)C1CCN(S(=O)(=O)Cc2ccccc2)CC1,759
20,Cc1ncc2c(n1)C[C@@H]1CC[C@H]2N1S(=O)(=O)c1ccccc1,695
21,O=C(c1cnn(-c2ccccc2)n1)N1CCCC(COCc2ccccc2)C1 (configuration not stated),1110

# — the METLIN SMRT retention time set (Domingo-Almenara et al. 2019)
